Results published in patent US7122563B2, “Derivatives of 4-demethylpenclomedine, use thereof and preparation thereof” (Southern Research Institute, priority 2005, dated 2006).

What was measured:
[1] = tested on: MX-1 Mammary Tumor; experiment: MX-1 mammary tumor implanted in the mammary fat pad of mice, i.p. treatment
[2] = rats; cited from earlier work
[3] = tested on: U251 human glioblastoma xenograft; experiment: Intracranially-implanted U251 human glioblastoma xenograft, survival; type: in vivo; conditions: for increase in life span (ILS): intracranially-implanted U251, side-by-side experiment
Excerpt: (§1) Treatment of i.c. implants is initiated 1 day after tumor implantation and continued for 5 days. Mice are monitored daily for survival.

[4] = tested on: D54 human glioblastoma multiforme; experiment: Intracranially-implanted D54 human glioblastoma multiforme, survival; type: in vivo
Excerpt: as §1

[5] = Behavioral test of neurotoxicity (tremors); type: in vivo; conditions: DM-SMTC-PEN evaluated simultaneously with PEN
Excerpt: A major concern for the penclomedine (PEN) series of derivatives is their possible neurotoxicity. PEN was removed from clinical development as a potential drug for treating breast cancer because of its dose-limiting neurotoxicity.

[6] = after both intravenous and oral administration, related to peak plasma levels; cited from earlier work
[7] = IP 135 mg/kg/dose, Days 15–19, groups of 5 mice
[8] = IP 135 mg/kg/dose, Days 13-17, groups of 5 mice
[9] = IP 60 mg/kg/dose, Days 15–19, groups of 5 mice

SMILES: COc1nc(C(Cl)(Cl)Cl)c(Cl)c(O)c1Cl [4-DM-PEN, 3,5-Dichloro-2-methoxy-4-hydroxy-6-(trichloromethyl)pyridine, reference compound]
- Growth Delay (T-C) ([1]; IP 135 mg/kg/dose, Days 15–19): 32.8
- Tumor-free Survivors ([1]; IP 135 mg/kg/dose, Days 15–19): 0/5
- Regressions Complete [1, 7]: 0
- Regressions Partial [1, 7]: 2
- cerebellar damage [2]: cerebellar damage only in the PEN-treated group

SMILES: CCN(CC)C(=S)Oc1c(Cl)c(OC)nc(C(Cl)(Cl)Cl)c1Cl [DM-DETC-PEN]
- Growth Delay (T-C) ([1]; IP 135 mg/kg/dose, Days 15–19): >35.2
- Tumor-free Survivors ([1]; IP 135 mg/kg/dose, Days 15–19): 1/5
- Regressions Complete [1, 7]: 1
- Regressions Partial [1, 7]: 1

SMILES: COc1nc(C(Cl)(Cl)Cl)c(Cl)c(OC(=S)N(C)C)c1Cl [DM-DMTC-PEN]
- Growth Delay (T-C) ([1]; IP 135 mg/kg/dose, Days 13-17): >37.0
- Tumor-free Survivors ([1]; IP 135 mg/kg/dose, Days 13-17): 3/5
- Regressions Complete [1, 8]: 4
- Regressions Partial [1, 8]: 1
- increase in life span (ILS) [3]: 44%

SMILES: CCSC(=O)Oc1c(Cl)c(OC)nc(C(Cl)(Cl)Cl)c1Cl [DM-SETC-PEN]
- Growth Delay (T-C) ([1]; IP 60 mg/kg/dose, Days 15–19): >35.2
- Tumor-free Survivors ([1]; IP 60 mg/kg/dose, Days 15–19): 1/5
- Regressions Complete [1, 9]: 2
- Regressions Partial [1, 9]: 3

SMILES: COc1nc(C(Cl)(Cl)Cl)c(Cl)c(OC(=O)SC)c1Cl [DM-SMTC-PEN]
- Growth Delay (T-C) ([1]; IP 60 mg/kg/dose, Days 15–19): >41.6
- Tumor-free Survivors ([1]; IP 60 mg/kg/dose, Days 15–19): 2/5
- Regressions Complete [1, 9]: 2
- Regressions Partial [1, 9]: 2
- increase in life span [4]: 18%
- activity against intracranially-implanted U251 ([3]; compared with the acyl derivatives): comparably active to the acyl derivatives
- increase in life span (ILS) [3]: 56%
- neurotoxicity (production of tremors) [5]: non-neurotoxic

SMILES: COc1nc(C(Cl)(Cl)Cl)c(Cl)c(OC(=O)Sc2ccccc2)c1Cl [DM-SPTC-PEN]
- Growth Delay (T-C) ([1]; IP 135 mg/kg/dose, Days 15–19): >35.2
- Tumor-free Survivors ([1]; IP 135 mg/kg/dose, Days 15–19): 1/5
- Regressions Complete [1, 7]: 2
- Regressions Partial [1, 7]: 2

SMILES: COc1nc(C(Cl)(Cl)Cl)c(Cl)c(OC)c1Cl [PEN, 3,5-dichloro-2,4-dimethoxy-6-(trichloromethyl) pyridine]
- neurotoxicity in clinical trials [6]: dose-limiting neurotoxicity was observed
- neurotoxicity (production of tremors) [5]: production of tremors
- cerebellar damage [2]: cerebellar damage only in the PEN-treated group
